Test results from US9969726B2, “Metabotropic glutamate receptor negative allosteric modulators (NAMS) and uses thereof” (Sanford-Burnham Medical Research Institute, priority 2014, dated 2018).
Read-outs that look alike come from different tables or passages of the source.

Experiments:
rat mGlu2 receptor = rat mGlu2 receptor (Rattus norvegicus (Rat), UniProt P31421); test: mGlu2 in vitro GIRK thallium flux assay; type: cell-based; conditions: NAM, EC80 glutamate, HEK-293 GIRK cells
Protocol: (§1) All cell culture reagents were purchased from Invitrogen Corp. (Carlsbad, Calif.) unless otherwise noted. Compound activity at the group II (mGlu2 and mGlu3) mGlus was assessed using thallium flux through GIRK channels. Briefly, cells were plated into 384-well, black-walled, clear-bottomed poly-D-lysine-coated plates at a density of 15,000 cells/20 μL/well in DMEM containing 10% dialyzed FBS, 20 mM HEPES, and 100 units/mL penicillin/streptomycin (assay media). Plated cells were incubated overnight at 37° C. in the presence of 5% CO2. […] Cells were incubated for 1 h at room temperature, and the dye exchanged to assay buffer using an ELX405, leaving 20 μL/well. Test compounds were diluted to 2 times their final desired concentration in assay buffer (0.3% DMSO final concentration). […] Cell plates and compound plates were loaded onto a kinetic imaging plate reader (FDSS 6000 or 7000; Hamamatsu Corporation, Bridgewater, N.J.). Appropriate baseline readings were taken (10 images at 1 Hz; excitation, 470±20 nm; emission, 540±30 nm) and test compounds were added in a 20 μL volume and incubated for either 2.5 min or 60 min as indicated before the addition of 10 μL of thallium buffer with or without agonist. After the addition of agonist, data were collected for approximately an additional 2.5 min. Data were analyzed using Excel (Microsoft Corp, Redmond, Wash.). The slope of the fluorescence increase beginning 5 s after thallium/agonist addition and ending 15 s after thallium/agonist addition was calculated, corrected to vehicle and maximal agonist control slope values, and plotted in using either XLfit (ID Business Solutions Ltd) or Prism software (GraphPad Software, San Diego, Calif.) to generate concentration-response curves. Potencies were calculated from fits using a four-point parameter logistic equation. For concentration-response curve experiments, compounds were serially diluted 1:3 into 10 point concentration response curves and were transferred to daughter plates using an Echo acoustic plate reformatter (Labcyte, Sunnyvale, Calif.). Test compounds were applied and followed by EC80 concentrations of glutamate.

rat mGlu3 receptor = rat mGlu3 receptor (Rattus norvegicus (Rat), UniProt P31422); test: mGlu3 in vitro GIRK thallium flux assay; type: cell-based; conditions: NAM; 2.5 min compound incubation; EC80 glutamate; HEK-293 GIRK cells
Protocol: as §1

[1] = 2.5 min compound incubation, read-out: mGlu2 EC50 (μM) (2.5 min)
[2] = read-out: mGlu2 EC50 (μM) (60 min), 60 min compound incubation
[3] = mGlu2 EC50 (μM) (60 min), 60 min compound incubation

Chain of rat mGlu2 receptor (P31421 19-872): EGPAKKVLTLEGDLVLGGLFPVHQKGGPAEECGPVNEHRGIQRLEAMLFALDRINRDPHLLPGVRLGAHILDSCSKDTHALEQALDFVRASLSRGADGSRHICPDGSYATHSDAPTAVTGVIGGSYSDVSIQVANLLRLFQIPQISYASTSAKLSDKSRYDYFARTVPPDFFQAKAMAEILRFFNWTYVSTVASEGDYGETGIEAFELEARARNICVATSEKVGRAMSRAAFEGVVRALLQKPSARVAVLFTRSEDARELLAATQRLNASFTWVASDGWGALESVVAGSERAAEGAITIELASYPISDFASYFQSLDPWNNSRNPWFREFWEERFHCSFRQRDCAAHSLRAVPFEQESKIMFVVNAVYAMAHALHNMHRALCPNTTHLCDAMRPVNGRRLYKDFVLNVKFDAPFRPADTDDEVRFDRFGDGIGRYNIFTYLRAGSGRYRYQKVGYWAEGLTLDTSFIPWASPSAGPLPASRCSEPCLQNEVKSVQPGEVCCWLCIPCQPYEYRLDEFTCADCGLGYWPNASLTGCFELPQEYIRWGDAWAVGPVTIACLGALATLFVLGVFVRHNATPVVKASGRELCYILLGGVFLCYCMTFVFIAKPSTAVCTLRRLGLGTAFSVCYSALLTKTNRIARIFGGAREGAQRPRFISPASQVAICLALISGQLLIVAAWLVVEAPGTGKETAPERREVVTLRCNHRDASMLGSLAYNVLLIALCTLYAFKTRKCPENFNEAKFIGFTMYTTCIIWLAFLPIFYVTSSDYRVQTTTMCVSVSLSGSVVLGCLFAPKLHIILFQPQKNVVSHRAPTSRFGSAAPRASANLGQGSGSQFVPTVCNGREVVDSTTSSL
Chain of rat mGlu3 receptor (P31422 23-879): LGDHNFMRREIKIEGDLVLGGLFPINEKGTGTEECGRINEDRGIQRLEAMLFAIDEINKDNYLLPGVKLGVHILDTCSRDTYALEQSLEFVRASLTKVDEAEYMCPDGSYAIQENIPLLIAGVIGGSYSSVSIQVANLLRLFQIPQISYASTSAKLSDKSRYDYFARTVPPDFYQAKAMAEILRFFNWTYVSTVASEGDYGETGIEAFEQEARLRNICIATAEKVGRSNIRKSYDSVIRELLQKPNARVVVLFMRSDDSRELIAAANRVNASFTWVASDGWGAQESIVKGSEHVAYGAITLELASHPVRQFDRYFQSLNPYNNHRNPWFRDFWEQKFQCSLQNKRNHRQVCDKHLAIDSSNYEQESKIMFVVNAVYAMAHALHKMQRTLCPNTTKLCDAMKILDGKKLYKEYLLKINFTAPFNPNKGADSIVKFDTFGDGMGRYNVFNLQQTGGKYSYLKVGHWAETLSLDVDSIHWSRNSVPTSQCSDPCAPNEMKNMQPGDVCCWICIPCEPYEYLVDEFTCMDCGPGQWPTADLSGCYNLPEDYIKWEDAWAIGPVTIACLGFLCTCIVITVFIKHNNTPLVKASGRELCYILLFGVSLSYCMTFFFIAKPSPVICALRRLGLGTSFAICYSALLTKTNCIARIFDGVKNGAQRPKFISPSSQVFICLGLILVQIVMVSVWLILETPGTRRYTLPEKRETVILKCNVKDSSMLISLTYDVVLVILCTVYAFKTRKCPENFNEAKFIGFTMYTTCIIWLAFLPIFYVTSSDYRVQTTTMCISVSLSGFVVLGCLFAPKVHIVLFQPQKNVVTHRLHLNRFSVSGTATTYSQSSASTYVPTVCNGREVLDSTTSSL

| Structure (SMILES) | EC50 (rat mGlu2 receptor; [1]) [µM] | EC50 (rat mGlu2 receptor; [2]) [µM] | EC50 (rat mGlu3 receptor) [µM] | EC50 (rat mGlu2 receptor; [3]) [µM] |
| --- | --- | --- | --- | --- |
| N#Cc1cc(C2=Nc3ccc(I)cc3NC(=O)C2)ccn1 [Example 183, 4-(8-Iodo-2-oxo-2,3-dihydro-1H-benzo[b][1,4]diazepin-4-yl)picolinonitrile] | 0.11 | 0.03 | 0.07 |  |
| CNC(=O)c1cc(-c2cccc(-c3nc(-c4ccc(C(F)(F)F)nc4)cc(C(F)(F)F)n3)c2)ccc1Cl [Example 85, 4-Chloro-N-methyl-3′-(4-(trifluoromethyl)-6-(6-(trifluoromethyl)pyridin-3-yl)pyrimidin-2-yl)biphenyl-3-carboxamide] | > 30 | > 10 | > 30 |  |
| COC(=O)c1cccc(C2CC(=O)Nc3cc(C(F)(F)F)c(C)cc3N2)c1 (racemic) [Example 151, (±)-Methyl 3-(8-methyl-4-oxo-7-(trifluoromethyl)-2,3,4,5-tetrahydro-1H-benzo[b][1,4]diazepin-2-yl)benzoate] |  |  |  | > 10 |
| O=C(O)c1ccc(-c2cccc(-c3csc(-c4ccccc4)n3)c2)cc1 [Example 22, 3′-(2-Phenylthiazol-4-yl)biphenyl-4-carboxylic Acid] | > 30 |  | > 30 | > 10 |
| O=C(O)c1cccc(-c2cccc(-c3coc(-c4ccccc4)n3)c2)c1 [Example 47, 3′-(2-Phenyloxazol-4-yl)-[1,1′-biphenyl]-3-carboxylic Acid] | > 10 |  | > 30 | > 10 |
| Fc1ccc(C#Cc2cccc(-c3nc(-c4ccc(C(F)(F)F)nc4)cc(C(F)(F)F)n3)c2)cc1 [Example 130, 2-(3-((4-Fluorophenyl)ethynyl)phenyl)-4-(trifluoromethyl)-6-(6-(trifluoromethyl)pyridin-3-yl)pyrimidine] | > 30 | > 10 | > 30 |  |
| O=C(O)c1ccc(-c2cccc(-c3nc(-c4ccc(C(F)(F)F)nc4)cc(C(F)(F)F)n3)c2)c(Cl)c1 [Example 78, 2-Chloro-3′-(4-(trifluoromethyl)-6-(6-(trifluoromethyl)pyridin-3-yl)pyrimidin-2-yl)biphenyl-4-carboxylic Acid] | 3.49 | 1.18 | 6.32 |  |
| Cc1cc2c(cc1C(F)(F)F)NC(=O)CC(c1cccc(Nc3ccccn3)c1)=N2 [Example 141, 7-Methyl-4-(3-(pyridin-2-ylamino)phenyl)-8-(trifluoromethyl)-1H-benzo[b][1,4]diazepin-2(3H)-one] |  | > 10 |  |  |
| O=C(O)c1ccccc1-c1cccc(-c2nc(-c3ccc(C(F)(F)F)nc3)cc(C(F)(F)F)n2)c1 [Example 72, 3′-(4-(Trifluoromethyl)-6-(6-(trifluoromethyl)pyridin-3-yl)pyrimidin-2-yl)biphenyl-2-carboxylic Acid] | > 10 | > 10 | > 10 |  |
| c1ccc(-c2nc(-c3cccc(-c4cccc(-c5nn[nH]n5)c4)c3)cs2)cc1 [Example 37, 4-(3′-(2H-Tetrazol-5-yl)biphenyl-3-yl)-2-phenylthiazole] | 2.98 | 1.72 | > 10 |  |
| O=C(O)c1ccc(-c2cccc(-c3nc(-c4ccc(C(F)(F)F)nc4)cc(C(F)(F)F)n3)c2)cc1Cl [Example 74, 3-Chloro-3′-(4-(trifluoromethyl)-6-(6-(trifluoromethyl)pyridin-3-yl)pyrimidin-2-yl)biphenyl-4-carboxylic Acid] | 6.76 | > 10 | 6.52 |  |
| O=c1[nH]c(-c2cc(-c3cccc(-c4nc(-c5ccoc5)cc(C(F)(F)F)n4)c3)ccc2F)ns1 [Example 135, 3-(4-Fluoro-3′-(4-(furan-3-yl)-6-(trifluoromethyl)pyrimidin-2-yl)-[1,1′-biphenyl]-3-yl)-1,2,4-thiadiazol-5(4H)-one] |  | > 10 |  |  |
| Fc1ccc(-c2cccc(-c3nc(-c4ccc(C(F)(F)F)nc4)cc(C(F)(F)F)n3)c2)cc1-c1nn[nH]n1 [Example 124, 2-(4′-Fluoro-3′-(2H-tetrazol-5-yl)-[1,1′-biphenyl]-3-yl)-4-(trifluoromethyl)-6-(6-(trifluoromethyl)pyridin-3-yl)pyrimidine] |  | 1.29 |  |  |
| C#Cc1cccc(C2CC(=O)Nc3cc(C(F)(F)F)c(C)cc3N2)c1 (single isomer, unassigned) [Example 175B, 4-(3-Ethynylphenyl)-7-methyl-8-(trifluoromethyl)-4,5-dihydro-1H-benzo[b][1,4]diazepin-2(3H)-one] |  |  |  | 4.47 |
| Fc1ccc(-c2cccc(-c3nc(-c4ccoc4)cc(C(F)(F)F)n3)c2)cc1-c1noc(=S)[nH]1 [Example 134, 3-(4-Fluoro-3′-(4-(furan-3-yl)-6-(trifluoromethyl)pyrimidin-2-yl)-[1,1′-biphenyl]-3-yl)-1,2,4-oxadiazole-5(4H)-thione] |  | > 10 |  |  |
| C#CCNC(=O)c1cccc(C2CC(=O)Nc3cc(C(F)(F)F)c(C)cc3N2)c1 (racemic) [Example 170B, 3-(8-Methyl-4-oxo-7-(trifluoromethyl)-2,3,4,5-tetrahydro-1H-benzo[b][1,4]diazepin-2-yl)-N-(prop-2-yn-1-yl)benzamide] |  |  |  | 3.68 |
| Cc1cc2c(cc1C(F)(F)F)NC(=O)CC(c1cccc(-n3ccc4ccccc43)c1)N2 (racemic) [Example 167B, 4-(3-(1H-Indol-1-yl)phenyl)-7-methyl-8-(trifluoromethyl)-4,5-dihydro-1H-benzo[b][1,4]diazepin-2(3H)-one] |  |  |  | > 10 |
| Cc1cc2c(cc1C(F)(F)F)NC(=O)CC(c1cccc(CCC(=O)O)c1)N2 (single isomer, unassigned) [Example 155B, 3-(3-(8-methyl-4-oxo-7-(trifluoromethyl)-2,3,4,5-tetrahydro-1H-benzo[b][1,4]diazepin-2-yl)phenyl)propanoic acid] |  |  |  | > 10 |
| Cc1cc2c(cc1C(F)(F)F)NC(=O)CC(c1cccc(C(N)=O)c1)N2 (single isomer, unassigned) [Example 168A, 3-(8-Methyl-4-oxo-7-(trifluoromethyl)-2,3,4,5-tetrahydro-1H-benzo[b][1,4]diazepin-2-yl)benzamide] |  |  |  | > 10 |
| Cc1cc2c(cc1C(F)(F)F)NC(=O)CC(c1cccc(OCc3ccccc3)c1)N2 (racemic) [Example 178, 4-(3-(Benzyloxy)phenyl)-7-methyl-8-(trifluoromethyl)-4,5-dihydro-1H-benzo[b][1,4]diazepin-2(3H)-one] |  |  |  | > 10 |
| O=C1CC(c2cccc(Br)c2)Nc2ccc(NC(=O)OCc3ccccc3)cc2N1 (racemic) [Example 158, Benzyl (2-(3-bromophenyl)-4-oxo-2,3,4,5-tetrahydro-1H-benzo[b][1,4]diazepin-7-yl)carbamate] |  |  |  | > 10 |
| O=C1CC(c2cccc(Br)c2)=Nc2ccc(NC(=O)OCc3ccccc3)cc2N1 [Example 157, Benzyl (4-(3-bromophenyl)-2-oxo-2,3-dihydro-1H-benzo[b][1,4]diazepin-8-yl)carbamate] |  | > 10 |  |  |
| N#Cc1cccc(C2CC(=O)Nc3cc(C(=O)O)ccc3N2)c1 (racemic) [Example 161, 2-(3-Cyanophenyl)-4-oxo-2,3,4,5-tetrahydro-1H-benzo[b][1,4]diazepine-7-carboxylic Acid] |  |  |  | > 30 |
| N#Cc1cc(C2CC(=O)Nc3cc(C(=O)O)ccc3N2)ccn1 (racemic) [Example 160, 2-(2-Cyanopyridin-4-yl)-4-oxo-2,3,4,5-tetrahydro-1H-benzo[b][1,4]diazepine-7-carboxylic Acid] |  |  |  | > 30 |
| CCOC(=O)/C=C/c1cccc(C2=Nc3cc(C)c(C(F)(F)F)cc3NC(=O)C2)c1 [Example 152, Ethyl 3-(3-((E)-7-methyl-2-oxo-8-(trifluoromethyl)-2,3-dihydro-1H-benzo[b][1,4]diazepin-4-yl)phenyl)acrylate] |  | 3.26 |  |  |
| O=c1[nH]c(-c2cc(-c3cccc(-c4nc(-c5ccoc5)cc(C(F)(F)F)n4)c3)ccc2F)no1 [Example 133, 3-(4-Fluoro-3′-(4-(furan-3-yl)-6-(trifluoromethyl)pyrimidin-2-yl)-[1,1′-biphenyl]-3-yl)-1,2,4-oxadiazol-5(4H)-one] |  | 0.73 |  |  |
| Cc1cccc(C#Cc2cccc(C3=Nc4cc(C)c(C(F)(F)F)cc4NC(=O)C3)c2)n1 [Example 138, 7-Methyl-4-(3-((6-methylpyridin-2-yl)ethynyl)phenyl)-8-(trifluoromethyl)-1H-benzo[b][1,4]diazepin-2 (3H)-one] |  | > 10 |  |  |
| Cc1cc2c(cc1C(F)(F)F)NC(=O)CC(c1cccc(Oc3cc(F)cc(F)c3)c1)N2 (single isomer, unassigned) [Example 174B, 4-(3-(3,5-Difluorophenoxy)phenyl)-7-methyl-8-(trifluoromethyl)-4,5-dihydro-1H-benzo[b][1,4]diazepin-2(3H)-one] |  | > 10 |  |  |
